Laboratory results from PubChem BioAssay AID328 (DTP/NCI, 2004).
Several values for one entry are separate records, joined by “and”; a condition that tells them apart may be missing. Equal entries are not always repeated. Inconclusive results and toxic doses are left out. Rule for the calls: active = survival T/C of 150% or more; inactive = T/C below 125% in these data.

Tested on: BDF1 mice, P388 leukemia ip, median survival T/C
Assay: NCI In Vivo Anticancer Drug Screen. Data for tumor model P388 Leukemia (intraperitoneal) in B6D2F1 (BDF1) mice
Details: endpoint: median survival time, higher = longer survival
How it was run: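 Read-out is survival of treated animals expressed relative to the vehicle group, as a T/C ratio.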

[1] = dose: 50.0 mg/kg/injection, schedule: Q01DX009 (ip), vehicle: saline with Tween-80
[2] = dose: 100.0 mg/kg/injection, schedule: Q01DX009 (ip), vehicle: saline with Tween-80
[3] = dose: 100.0 mg/kg/injection, schedule: Q04DX003 (ip), vehicle: saline
[4] = dose: 200.0 mg/kg/injection, schedule: Q01DX009 (ip), vehicle: saline with Tween-80
[5] = dose: 200.0 mg/kg/injection, schedule: Q04DX003 (ip), vehicle: saline
[6] = dose: 400.0 mg/kg/injection, schedule: Q01DX009 (ip), vehicle: saline with Tween-80
[7] = dose: 400.0 mg/kg/injection, schedule: Q04DX003 (ip), vehicle: saline with Tween-80
[8] = dose: 12.5 mg/kg/injection, schedule: Q01DX009 (ip), vehicle: saline
[9] = dose: 100.0 mg/kg/injection, schedule: Q01DX009 (ip), vehicle: saline
[10] = dose: 100.0 mg/kg/injection, schedule: Q04DX003 (ip), vehicle: saline with Tween-80
[11] = dose: 200.0 mg/kg/injection, schedule: Q04DX003 (ip), vehicle: saline with Tween-80
[12] = dose: 25.0 mg/kg/injection, schedule: Q01DX009 (ip), vehicle: saline
[13] = dose: 50.0 mg/kg/injection, schedule: Q01DX009 (ip), vehicle: saline
[14] = dose: 200.0 mg/kg/injection, schedule: Q01DX009 (ip), vehicle: saline

Measured: T/C

O=CN(c1ccccc1)c1ccccc1
inactive: [1] 110 % of control | dose: 100.0 mg/kg/injection, schedule: Q01DX001 (ip), vehicle: other 104 % of control | [2] 95 % of control | dose: 100.0 mg/kg/injection, schedule: Q04DX003 (ip), vehicle: other 91 % of control | [3] 95 % of control | dose: 175.0 mg/kg/injection, schedule: Q04DX003 (ip), vehicle: saline with Tween-80 115 % of control | dose: 200.0 mg/kg/injection, schedule: Q01DX001 (ip), vehicle: other 108 % of control | [4] 100 % of control | dose: 200.0 mg/kg/injection, schedule: Q04DX003 (ip), vehicle: other 116 % of control | [5] 100 % of control | dose: 400.0 mg/kg/injection, schedule: Q01DX001 (ip), vehicle: other 87 % of control | [6] 105 % of control | dose: 400.0 mg/kg/injection, schedule: Q04DX003 (ip), vehicle: saline 86 % of control
active: [7] 150 % of control

Cn1cc(C=O)c2nccnc21
inactive: dose: 0.78 mg/kg/injection, schedule: Q01DX009 (ip), vehicle: saline 92 % of control | dose: 1.56 mg/kg/injection, schedule: Q01DX009 (ip), vehicle: saline 112 % of control | dose: 6.25 mg/kg/injection, schedule: Q01DX009 (ip), vehicle: saline 91 % of control | [8] 86 % of control | [2] 117 % of control | [9] 108 % of control

COc1cc2cc(c1Cl)N(C)C(=O)/C=C/C1(C)OC1C(C)C1CC(O)(NC(=O)O1)C(OC)C=C/C=C(\C)C2 (stereo not drawn)
inactive: dose: 0.2 micrograms/kg/injection, schedule: Q01DX009 (ip), vehicle: saline + alcohol 90 % of control | dose: 0.4 micrograms/kg/injection, schedule: Q01DX009 (ip), vehicle: saline + alcohol 90 % of control | dose: 0.8 micrograms/kg/injection, schedule: Q01DX009 (ip), vehicle: saline + alcohol 90 % of control | dose: 1.6 micrograms/kg/injection, schedule: Q01DX009 (ip), vehicle: saline + alcohol 90 % of control | dose: 3.1 micrograms/kg/injection, schedule: Q01DX009 (ip), vehicle: saline + alcohol 90 % of control | dose: 100.0 micrograms/kg/injection, schedule: Q01DX009 (ip), vehicle: saline + alcohol 110 % of control

COC(=O)c1cc2ccccc2o1
inactive: [10] 95 % of control | [11] 95 % of control | [7] 91 % of control

O=C(/C(=C/c1ccccc1)CBr)c1ccccc1
inactive: dose: 1.6 mg/kg/injection, schedule: Q01DX009 (ip), vehicle: Klucel (hydroxypropylcellulose) (HPC) 109 % of control | dose: 3.1 mg/kg/injection, schedule: Q01DX009 (ip), vehicle: Klucel (hydroxypropylcellulose) (HPC) 100 % of control | dose: 6.25 mg/kg/injection, schedule: Q01DX009 (ip), vehicle: Klucel (hydroxypropylcellulose) (HPC) 104 % of control | dose: 12.5 mg/kg/injection, schedule: Q01DX009 (ip), vehicle: Klucel (hydroxypropylcellulose) (HPC) 86 % of control | dose: 12.5 mg/kg/injection, schedule: Q04DX003 (ip), vehicle: Klucel (hydroxypropylcellulose) (HPC) 104 % of control | dose: 25.0 mg/kg/injection, schedule: Q01DX009 (ip), vehicle: Klucel (hydroxypropylcellulose) (HPC) 86 % of control | dose: 25.0 mg/kg/injection, schedule: Q04DX003 (ip), vehicle: Klucel (hydroxypropylcellulose) (HPC) 95 % of control | dose: 50.0 mg/kg/injection, schedule: Q04DX003 (ip), vehicle: Klucel (hydroxypropylcellulose) (HPC) 95 % of control

C[N+]1(C)CCCCC1
inactive: [8] 95 % of control and 100 % of control | dose: 12.5 mg/kg/injection, schedule: Q04DX003 (ip), vehicle: saline with Tween-80 101 % of control | [12] 98 % of control and 100 % of control | dose: 50.0 mg/kg/injection, schedule: Q04DX003 (ip), vehicle: saline 100 % of control

CC(C)(C)C1C2N1C1(c3ccccc3)OC2(c2ccccc2)c2ccccc21 (stereo not drawn)
inactive: dose: 50.0 mg/kg/injection, schedule: Q01DX009 (ip), vehicle: Klucel (hydroxypropylcellulose) (HPC) 106 % of control | dose: 100.0 mg/kg/injection, schedule: Q01DX009 (ip), vehicle: Klucel (hydroxypropylcellulose) (HPC) 100 % of control | dose: 200.0 mg/kg/injection, schedule: Q01DX009 (ip), vehicle: Klucel (hydroxypropylcellulose) (HPC) 104 % of control

O=C(CCl)NCc1cnccn1
inactive: [12] 107 % of control | [13] 102 % of control | [9] 108 % of control | [3] 94 % of control | [14] 102 % of control | [5] 117 % of control

Cc1nn2c(=O)[nH]cnc2c1Cl
inactive: [2] 93 % of control | [4] 100 % of control | [11] 95 % of control | [7] 109 % of control

COc1cc([C@@H]2c3cc4c(cc3[C@@H](OC3OC5COC(C)OC5C(O)C3O)[C@H]3COC(=O)[C@H]23)OCO4)cc(OC)c1O (stereo partly drawn)
active: dose: 7.48 mg/kg/injection, schedule: Q04DX003 (ip), vehicle: other 225 % of control | dose: 11.8 mg/kg/injection, schedule: Q04DX003 (ip), vehicle: Klucel (hydroxypropylcellulose) (HPC) 533 % of control | dose: 11.8 mg/kg/injection, schedule: Q04DX003 (ip), vehicle: saline 170 % of control | dose: 12.0 mg/kg/injection, schedule: Q04DX003 (ip), vehicle: saline 287 % of control | dose: 12.5 mg/kg/injection, schedule: Q04DX003 (ip), vehicle: other 266 % of control | dose: 17.8 mg/kg/injection, schedule: Q04DX003 (ip), vehicle: Klucel (hydroxypropylcellulose) (HPC) 535 % of control | dose: 17.8 mg/kg/injection, schedule: Q04DX003 (ip), vehicle: saline 200 % of control | dose: 18.0 mg/kg/injection, schedule: Q04DX003 (ip), vehicle: Klucel (hydroxypropylcellulose) (HPC) 476 % of control | dose: 18.0 mg/kg/injection, schedule: Q04DX003 (ip), vehicle: saline 548 % of control | dose: 22.08 mg/kg/injection, schedule: Q04DX003 (ip), vehicle: other 490 % of control | dose: 27.0 mg/kg/injection, schedule: Q04DX003 (ip), vehicle: Klucel (hydroxypropylcellulose) (HPC) 535 % of control | dose: 27.0 mg/kg/injection, schedule: Q04DX003 (ip), vehicle: saline 550 % of control and 222 % of control | dose: 30.0 mg/kg/injection, schedule: Q04DX003 (ip), vehicle: Klucel (hydroxypropylcellulose) (HPC) 242 % of control | dose: 34.6 mg/kg/injection, schedule: Q04DX003 (ip), vehicle: other 491 % of control | dose: 40.0 mg/kg/injection, schedule: Q04DX003 (ip), vehicle: saline 550 % of control | dose: 40.5 mg/kg/injection, schedule: Q04DX003 (ip), vehicle: Klucel (hydroxypropylcellulose) (HPC) 535 % of control | dose: 40.5 mg/kg/injection, schedule: Q04DX003 (ip), vehicle: saline 300 % of control | dose: 60.0 mg/kg/injection, schedule: Q04DX003 (ip), vehicle: saline 202 % of control

O=S(=O)(OC1=CCCCC1)C(F)(F)F
inactive: [13] 104 % of control | [9] 107 % of control | [14] 109 % of control

O=C(Nc1cc(Cl)ccc1Cl)c1ccc(C(=O)Nc2cc(Cl)ccc2Cl)cc1
inactive: [2] 94 % of control | [4] 91 % of control | [6] 110 % of control

Cn1cnc2c(SCc3ccccc3)ncnc21
inactive: [2] 109 % of control | [4] 113 % of control | [6] 90 % of control

O=C1CC(N2C(=O)c3ccccc3C2=O)C(=O)N1 (stereo not drawn)
inactive: dose: 25.0 mg/kg/injection, schedule: Q04DX003 (ip), vehicle: saline with Tween-80 101 % of control | dose: 50.0 mg/kg/injection, schedule: Q04DX003 (ip), vehicle: saline with Tween-80 103 % of control | [10] 103 % of control | [11] 99 % of control

CCC[n+]1ccc(/C=N\NC(N)=S)c2ccccc21
inactive: dose: 25.0 mg/kg/injection, schedule: Q01DX009 (ip), vehicle: saline with Tween-80 94 % of control | [1] 103 % of control | [2] 122 % of control | [4] 122 % of control

C=CC(O)CN1CC1 (stereo not drawn)
active: dose: 10.0 mg/kg/injection, schedule: Q04DX003 (ip), vehicle: saline 191 % of control

O=C1c2ccccc2CCCC12OC2c1ccccc1 (stereo not drawn)
inactive: dose: 75.0 mg/kg/injection, schedule: Q04DX003 (ip), vehicle: Klucel (hydroxypropylcellulose) (HPC) 95 % of control | dose: 150.0 mg/kg/injection, schedule: Q04DX003 (ip), vehicle: Klucel (hydroxypropylcellulose) (HPC) 104 % of control | dose: 300.0 mg/kg/injection, schedule: Q04DX003 (ip), vehicle: Klucel (hydroxypropylcellulose) (HPC) 90 % of control
